Consider one compound from ChEMBL document CHEMBL5338751, “Discovery of the First-in-Class Intestinal Restricted FXR and FABP1 Dual Modulator ZLY28 for the Treatment of Nonalcoholic Fatty Liver Disease” (J Med Chem, 2023).

A short description of data set [1]: Subacute toxicity in ICR mouse assessed as changes in serum DBIL level at 500 mg/kg/day, po administered for 14 days. It is filed as organism-based. The following applies: in vivo, 336 h, time 14 day.
For data set [2], the target named is Progesterone receptor (Homo sapiens, UniProt P06401). The data set can be described thus: Activation of Gal-DBD and NHRLBD fused PR (unknown origin) transfected in African green monkey CV-1 cells by luciferase reporter assay. It is filed as cell-based. (In a reporter assay the amount or activity of a reporter protein is the signal.)
Chain of Progesterone receptor (P06401 whole entry, the tested form may be a part): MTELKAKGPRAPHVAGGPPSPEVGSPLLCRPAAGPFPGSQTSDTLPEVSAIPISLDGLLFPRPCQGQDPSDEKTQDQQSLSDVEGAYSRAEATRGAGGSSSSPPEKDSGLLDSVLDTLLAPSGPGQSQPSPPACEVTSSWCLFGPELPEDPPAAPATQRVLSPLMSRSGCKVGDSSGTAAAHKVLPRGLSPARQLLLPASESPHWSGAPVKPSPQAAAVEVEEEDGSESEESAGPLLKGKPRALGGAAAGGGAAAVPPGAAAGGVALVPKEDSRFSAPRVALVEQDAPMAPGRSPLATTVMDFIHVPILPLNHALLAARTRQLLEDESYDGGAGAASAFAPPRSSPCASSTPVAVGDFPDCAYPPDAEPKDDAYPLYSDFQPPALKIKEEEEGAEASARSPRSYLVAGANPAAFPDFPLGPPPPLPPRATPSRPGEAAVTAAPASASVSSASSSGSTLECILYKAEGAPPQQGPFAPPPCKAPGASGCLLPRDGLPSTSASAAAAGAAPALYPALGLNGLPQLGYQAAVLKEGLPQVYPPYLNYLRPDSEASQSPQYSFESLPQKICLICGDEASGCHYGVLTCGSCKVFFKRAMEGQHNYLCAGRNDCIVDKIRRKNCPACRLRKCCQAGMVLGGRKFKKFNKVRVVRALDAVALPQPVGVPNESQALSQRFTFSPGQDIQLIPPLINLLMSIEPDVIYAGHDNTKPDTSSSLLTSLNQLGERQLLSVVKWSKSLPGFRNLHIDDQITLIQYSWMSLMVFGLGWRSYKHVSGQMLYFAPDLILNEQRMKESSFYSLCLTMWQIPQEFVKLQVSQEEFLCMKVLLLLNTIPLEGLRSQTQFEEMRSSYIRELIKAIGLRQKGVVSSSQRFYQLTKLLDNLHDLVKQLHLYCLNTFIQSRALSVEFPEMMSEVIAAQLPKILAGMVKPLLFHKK
In data set [3] the target is T1, Bile acid receptor (Mus musculus) (UniProt Q60641).
T1 sequence (whole entry): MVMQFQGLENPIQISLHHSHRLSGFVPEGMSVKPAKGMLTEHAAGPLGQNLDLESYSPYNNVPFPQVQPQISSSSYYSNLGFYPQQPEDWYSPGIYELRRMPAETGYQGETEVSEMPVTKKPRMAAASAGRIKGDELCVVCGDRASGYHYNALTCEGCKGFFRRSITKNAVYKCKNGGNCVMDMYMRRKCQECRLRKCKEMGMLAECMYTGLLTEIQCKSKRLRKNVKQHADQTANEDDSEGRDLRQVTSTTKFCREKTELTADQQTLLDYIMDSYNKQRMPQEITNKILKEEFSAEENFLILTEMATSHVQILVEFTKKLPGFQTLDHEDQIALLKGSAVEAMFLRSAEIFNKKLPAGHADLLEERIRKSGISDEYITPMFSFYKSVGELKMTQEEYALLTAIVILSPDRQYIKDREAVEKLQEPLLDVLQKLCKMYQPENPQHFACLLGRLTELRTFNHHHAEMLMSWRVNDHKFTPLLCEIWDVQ
The experiment in a line: In vivo activation of FXR pathway in western diet and CCl4-induced nonalcoholic steatohepatitis C57BL/6 mouse model assessed as downregulation of CYP7A1 mRNA level in […] at 20 mg/kg, po administered for 12 weeks starting from week 8 and change in dose for every 5 days. It is filed as functional, organism-based. The following applies: time 4.0 weeks.

Data set [4] in a line: Subacute toxicity in ICR mouse assessed as reduction in serum ALP level at 500 mg/kg/day, po administered for 14 days. It counts as organism-based. The settings on record: in vivo, 336 h, time 14 day.
The target of data set [5] is Glucocorticoid receptor (Homo sapiens, UniProt P04150). The data set can be described thus: Activation of Gal-DBD and NHRLBD fused GR (unknown origin) transfected in African green monkey CV-1 cells by luciferase reporter assay. It counts as cell-based.
Chain of Glucocorticoid receptor (P04150 whole entry, the tested form may be a part): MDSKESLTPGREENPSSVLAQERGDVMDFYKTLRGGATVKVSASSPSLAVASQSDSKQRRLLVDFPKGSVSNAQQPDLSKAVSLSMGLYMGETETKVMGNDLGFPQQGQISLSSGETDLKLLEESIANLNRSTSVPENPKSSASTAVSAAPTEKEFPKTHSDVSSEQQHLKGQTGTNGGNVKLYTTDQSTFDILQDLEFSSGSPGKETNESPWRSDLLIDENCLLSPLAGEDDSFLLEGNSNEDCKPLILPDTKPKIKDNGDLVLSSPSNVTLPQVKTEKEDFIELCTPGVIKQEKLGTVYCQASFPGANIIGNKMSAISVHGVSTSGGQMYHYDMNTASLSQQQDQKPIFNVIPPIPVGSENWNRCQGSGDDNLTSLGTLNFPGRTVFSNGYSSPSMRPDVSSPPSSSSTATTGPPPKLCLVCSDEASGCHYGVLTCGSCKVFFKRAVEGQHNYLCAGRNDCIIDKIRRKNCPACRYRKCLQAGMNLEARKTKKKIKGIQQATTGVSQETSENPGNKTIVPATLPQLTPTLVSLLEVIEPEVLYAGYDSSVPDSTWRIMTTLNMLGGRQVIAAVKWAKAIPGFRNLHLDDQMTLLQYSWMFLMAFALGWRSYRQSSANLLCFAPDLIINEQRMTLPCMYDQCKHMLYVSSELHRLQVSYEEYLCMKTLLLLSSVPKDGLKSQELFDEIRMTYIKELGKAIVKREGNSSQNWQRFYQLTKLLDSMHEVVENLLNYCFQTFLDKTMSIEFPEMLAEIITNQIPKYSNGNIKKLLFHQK
Data set [6] can be described thus: Ratio of drug level in liver to plasma in C57BL/6 mouse at 20 mg/kg, po administered for 5 days and measured after 1 hr post final dose by LC-MS analysis.
The target in data set [7] is T2, Peroxisome proliferator-activated receptor gamma (Homo sapiens, UniProt P37231).
T2 sequence (P37231 whole entry): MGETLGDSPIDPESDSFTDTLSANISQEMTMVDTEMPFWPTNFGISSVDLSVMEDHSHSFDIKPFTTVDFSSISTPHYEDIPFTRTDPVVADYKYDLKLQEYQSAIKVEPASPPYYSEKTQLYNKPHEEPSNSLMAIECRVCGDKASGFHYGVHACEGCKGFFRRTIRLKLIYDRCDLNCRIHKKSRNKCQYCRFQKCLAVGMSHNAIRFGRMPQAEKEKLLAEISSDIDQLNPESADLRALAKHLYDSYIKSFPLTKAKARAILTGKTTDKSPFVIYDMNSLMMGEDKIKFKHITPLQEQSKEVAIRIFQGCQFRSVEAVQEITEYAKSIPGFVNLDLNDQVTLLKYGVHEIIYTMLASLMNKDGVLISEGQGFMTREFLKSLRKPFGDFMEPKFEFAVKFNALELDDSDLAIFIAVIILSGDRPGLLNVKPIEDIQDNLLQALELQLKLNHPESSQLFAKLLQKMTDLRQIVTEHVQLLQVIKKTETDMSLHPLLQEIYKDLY
The experiment in a line: Agonist activity at PPARgamma (unknown origin) transfected in HEK293 cells incubated for 18 hrs by renilla/firefly based dual-glo luciferase assay. It is filed as cell-based.

The target in data set [8] is G-protein coupled bile acid receptor 1 (Homo sapiens, UniProt Q8TDU6). The experiment in a line: Activation of TGR5 (unknown origin) transfected in human NCI-H716 cells assessed as increase in cAMP production incubated for 24 hrs by HTR-FRET assay. It counts as functional, cell-based.
Chain of G-protein coupled bile acid receptor 1 (Q8TDU6 whole entry): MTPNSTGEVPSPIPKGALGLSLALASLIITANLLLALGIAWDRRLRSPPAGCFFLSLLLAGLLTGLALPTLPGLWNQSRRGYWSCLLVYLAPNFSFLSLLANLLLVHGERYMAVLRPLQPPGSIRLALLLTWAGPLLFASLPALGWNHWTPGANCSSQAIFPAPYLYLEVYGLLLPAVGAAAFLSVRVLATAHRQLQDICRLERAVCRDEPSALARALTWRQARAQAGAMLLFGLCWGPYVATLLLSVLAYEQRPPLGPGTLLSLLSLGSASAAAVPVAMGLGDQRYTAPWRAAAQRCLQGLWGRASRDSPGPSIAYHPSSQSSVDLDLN
In data set [9] the test system is Mus musculus. The data set can be described thus: Anti-NASH activity in western diet and CCl4-induced nonalcoholic steatohepatitis C57BL/6 mouse assessed as alleviation of lobular inflammation at 20 mg/kg, po administered for 12 weeks starting from week 8 and change in dose for every 5 days. It counts as functional, organism-based. The settings on record: time 4.0 weeks.

Data set [10] can be described thus: Metabolic stability in Beagle dog liver microsomes assessed as parent compound remaining incubated for 1 hr by LC-MS analysis. It counts as ADME, Canis lupus familiaris, Microsome. The settings on record: read-out: Stability. In general terms: Liver microsomes are vesicles of endoplasmic reticulum, rich in cytochrome P450 enzymes.
Data set [11] relates to Mus musculus. The data set can be described thus: Anti-NASH activity in western diet and CCl4-induced nonalcoholic steatohepatitis C57BL/6 mouse assessed as reduction in liver weight ratio at 20 mg/kg, po administered for 12 weeks starting from week 8 and change in dose for every 5 days. It counts as functional, organism-based. The settings on record: time 4.0 weeks.
The target in data set [12] is T3, Bile acid receptor (Homo sapiens, UniProt Q96RI1).
T3 sequence (Q96RI1 whole entry): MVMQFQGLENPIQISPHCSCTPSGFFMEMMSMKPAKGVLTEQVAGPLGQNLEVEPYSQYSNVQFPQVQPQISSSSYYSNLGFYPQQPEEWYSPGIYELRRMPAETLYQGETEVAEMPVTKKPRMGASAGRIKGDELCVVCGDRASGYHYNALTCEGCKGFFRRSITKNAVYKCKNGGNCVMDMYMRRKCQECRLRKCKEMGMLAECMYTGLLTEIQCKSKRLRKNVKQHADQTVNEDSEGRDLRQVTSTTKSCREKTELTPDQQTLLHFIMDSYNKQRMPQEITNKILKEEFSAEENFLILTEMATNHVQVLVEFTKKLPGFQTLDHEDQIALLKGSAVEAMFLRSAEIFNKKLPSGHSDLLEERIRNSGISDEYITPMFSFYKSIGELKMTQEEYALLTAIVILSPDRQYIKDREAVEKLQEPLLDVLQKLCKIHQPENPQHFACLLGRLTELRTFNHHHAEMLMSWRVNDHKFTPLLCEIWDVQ
The data set can be described thus: Agonist activity at FXR (unknown origin) expressed in human HepG2 cells co-transfected with human RXR assessed as luciferase activity incubated for 24 hrs by cell-based luciferase assay.

Data set [13] is described as follows: Drug concentration in C57BL/6 mouse liver at 20 mg/kg, po administered for 5 days and measured after 1 hr post final dose by LC-MS analysis. It is filed as ADME, organism-based. The following applies: time 5 day, read-out: Ct.
For data set [14], the system named is Mus musculus. The data set can be described thus: In vivo inhibition of FABP1 in western diet and CCl4-induced nonalcoholic steatohepatitis C57BL/6 mouse assessed as reduction in NEFA uptake in fecal at 20 mg/kg, po administered for 12 weeks starting from week 8 and change in dose for every 5 days. The following applies: time 4.0 weeks. It is filed as functional, organism-based.

Data set [15] relates to Mus musculus. The data set can be described thus: Anti-NASH activity in western diet and CCl4-induced nonalcoholic steatohepatitis C57BL/6 mouse assessed as downregulation of IL6 expression level at 20 mg/kg, po administered for 12 weeks starting from week 8 and change in dose for every 5 days by ELISA. It counts as functional, organism-based. The following applies: time 4.0 weeks. On the technique in general: In an ELISA, binding on a coated surface is turned into a signal by an enzyme label.

Data set [16] deals with T1, Bile acid receptor (Mus musculus). The data set can be described thus: In vivo activation of FXR pathway in western diet and CCl4-induced nonalcoholic steatohepatitis C57BL/6 mouse model assessed as upregulation of SHP gene expression in ileum at 20 mg/kg, po administered for 12 weeks starting from week 8 and change in dose for every 5 days by RT-PCR analysis. It is filed as functional, organism-based. The following applies: time 4.0 weeks.

Data set [17] deals with T3, Bile acid receptor. The data set can be described thus: Agonist activity at FXR-LBD (unknown origin) using fluorescein-coactivator peptide incubated for 3 hrs by TR-FRET assay.

The EC50 is the concentration giving half of the maximal effect. In general, Kp refers to tissue or fluid exposure divided by exposure in the circulation.

The source made the active and inactive calls. No cut-off for these calls is given here.

For the compound `O=C(O)C1(c2cccc(-c3ccc(OCc4c(-c5c(Cl)cccc5Cl)noc4C4CC4)cc3)c2)CC1`, the Activity entry in data set [1] and in data set [4] was “Non-Toxic” in each case. Also, the EC50 in data set [2] was above 10 µM; in data set [5] it was above 10 µM; in data set [7] it was above 10 µM; in data set [8], above 10 µM; in data set [12] it was 491 nM; in data set [17], 143 nM. Also, the outcome in [3], in data set [9], in [11], in data set [14], in data set [15] and in data set [16] was Active. Besides, in data set [6], the Kp at 120 h turned out to be 5.1. Further, the remaining at 1 h in data set [10] came out at 57.4%. In addition, the concentration at 120 h in [13] was determined as 37.2 ng/g.
